Test results published in article PMC6222779, “Enzyme-Site Blocking Combined with Optimization of Molecular Docking for Efficient Discovery of Potential Tyrosinase Specific Inhibitors from Puerariae lobatae Radix” (Molecules : A Journal of Synthetic Chemistry and Natural …, 2018).
Where two headings read alike, the source gives them in different places.

What was measured:
TYR [1] = target: T1, TYR (Agaricus bisporus, UniProt C7FF04); assay: TYR-site blocking affinity ultrafiltration screening with HPLC; conditions: specific ligand when (Ab − Ae)/Ab ≥ 50% and (Ac − Ae)/Ac ≥ 50%; TYR 0.1 mg/mL, 30 °C, 30 min, 5000× g; peaks of PLR extract
Target sequence in this assay (C7FF04 1-392 limits assumed): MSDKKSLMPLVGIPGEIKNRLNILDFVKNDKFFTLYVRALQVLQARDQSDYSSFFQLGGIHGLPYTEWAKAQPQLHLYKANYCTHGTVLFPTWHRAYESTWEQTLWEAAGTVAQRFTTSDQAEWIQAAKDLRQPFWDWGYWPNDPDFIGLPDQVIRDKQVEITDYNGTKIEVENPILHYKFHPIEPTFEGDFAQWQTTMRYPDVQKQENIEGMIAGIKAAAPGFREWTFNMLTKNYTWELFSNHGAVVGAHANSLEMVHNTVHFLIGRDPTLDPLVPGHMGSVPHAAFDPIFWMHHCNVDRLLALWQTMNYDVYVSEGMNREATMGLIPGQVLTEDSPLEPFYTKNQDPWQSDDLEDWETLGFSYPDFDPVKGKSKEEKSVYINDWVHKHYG
Experimental: PLR-extract solution (100 µL) mixed with 100 µL diluted TYR solution and incubated at the best UF parameters. The unbound compounds can pass through the ultrafiltration membrane into the filtrates (F1), whereas the enzyme-ligand complexes remained in the chamber. After washing the retained complexes twice with 200 µL PBS (pH 6.8) to remove the residual unbound compounds, 200 µL methanol (80% (v/v)) was added into chamber and ultrasonic for 15 min to disrupt the complexes and release the ligands. The mixture was then centrifuge at 5000× g for 15 min, the filtrates (F2) containing the selected compounds were passed through a 0.45 µm filter membrane prior to HPLC analysis. For blank groups, PBS (pH 6.8) containing 2% DMSO was used to incubate with the TYR solution, followed by performance of the protocol described here. All experiments were performed in triplicate.
The PLR extract solution was added to the reaction solution and the protocol described in Section 2.5 was followed prior to HPLC analysis. All experiments were performed in triplicate.

TYR [2] = target: T1, TYR; assay: TYR inhibit assay (spectrophotometry, L-tyrosine substrate); format: biochemical; set-up: purchased Sigma-Aldrich
Experimental: TYR inhibition by PLR extract solution, selected compounds and Kojic acid was analyzed by spectrophotometry. The solution comprised 50 µL of the mixed ligand solution (the corresponding ligand standards were diluted 50-fold with PBS) incubated with 50 µL TYR solution (0.1 U/mL ) for 30 min at room temperature, followed by the addition of 100 µL L-tyrosine (0.4 mM) and incubation for another 30 min at 30 °C. Absorbance was measured in triplicate at 480 nm and inhibition ratios were calculated from the mean of the triplicate observations according to Equation (2):(2) Inhibitory Ratio (%) = Ab−Ae/Ab × 100%, where Ab and Ae represented the absorption of blank groups and experiment groups, respectively.
Target sequence in this assay (C7FF04 1-392): as the sequence (C7FF04 1-392 limits assumed) above

[3] = TYR inhibitory activity, L-tyrosine 0.4 mM, absorbance at 480 nm, triplicate, read-out: IC50 ± SD

IC50 (TYR [2]; [3]) [µM]	SMILES	binding to TYR in ultrafiltration with kojic acid site blocking (TYR [1])	IC50 (TYR [2]) [µM]
	COc1ccc2c(c1)OC(=O)C=C(c1ccc(O)cc1)C(OC1OC(CO)C(O)C(O)C1O)C2 (stereo not shown) [compound 11, sophoroside A]	not recognized as specific TYR inhibitors	
	O=c1c(-c2ccc(O)cc2)coc2cc(O[C@@H]3O[C@H](CO)[C@@H](O)[C@H](O)[C@H]3O)ccc12 [Daidzin, daidzin]	potential specific TYR ligands	> 500
> 500	O=c1c(-c2ccc(O)cc2)coc2cc(O[C@@H]3O[C@H](CO)[C@@H](O)[C@H](O)[C@H]3O)cc(O)c12 [Genistin, genistin]	potential specific TYR ligands	
	O=c1c(-c2ccc(O)cc2)coc2c(C3OC(COC4OCC(O)(CO)C4O)C(O)C(O)C3O)c(O)cc(O)c12 (stereo not shown) [compound 7, genistein-8-C-apiosyl(16)-glucoside]	not recognized as specific TYR inhibitors	
12.7 ± 2.77	O=c1c(-c2ccc(O)cc2)coc2c(C3OC(COC4OCC(O)(CO)C4O)C(O)C(O)C3O)c(O)ccc12 (stereo not shown) [Mirificin, mirificin]	potential specific TYR ligands	
	O=c1c(-c2ccc(O)cc2)coc2c([C@@H]3O[C@H](CO)[C@@H](O)[C@H](O)[C@H]3O)c(O)ccc12 [Puerarin, puerarin]	potential specific TYR ligands	9.83 ± 1.45
